The results in this text go back to patent US5409947A, “Cycloheptimidazole derivatives, method of manufacturing the same and therapeutic agents containing these compounds” (Kotobuki Seiyaku Co., Ltd., priority 1992, dated 1995).

Where a name gives a salt, the structure may show the parent alone.

One assay concerns the target T1, angiotensin II receptor (Oryctolagus cuniculus, UniProt P34976).
T1 construct: Rabbit aorta thoracic is isolated; from tissue; host or cells: isolated rabbit thoracic aorta
T1 sequence (P34976 1-359): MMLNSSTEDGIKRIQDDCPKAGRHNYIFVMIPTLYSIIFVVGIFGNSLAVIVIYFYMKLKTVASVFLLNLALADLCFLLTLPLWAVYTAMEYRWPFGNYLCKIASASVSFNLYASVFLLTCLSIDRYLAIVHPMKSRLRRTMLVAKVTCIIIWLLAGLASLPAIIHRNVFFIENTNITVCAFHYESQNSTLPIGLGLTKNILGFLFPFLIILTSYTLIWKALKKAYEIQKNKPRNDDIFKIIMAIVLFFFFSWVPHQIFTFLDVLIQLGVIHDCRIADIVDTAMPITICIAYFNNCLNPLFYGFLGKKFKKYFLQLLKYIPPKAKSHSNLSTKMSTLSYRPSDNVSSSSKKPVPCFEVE
Kind of assay: Angiotensin II receptor antagonistic activity: inhibition of angiotensin II-induced contraction of isolated rabbit thoracic aorta. Format: cell-based. The note with it: isolated rabbit thoracic aorta contracted by angiotensin II; from dose-response curve (Schild). The source says:
Angiotensin II receptor antagonistic activity experiments are carded out according to P. C. Wong et al. (Hypertension. 15, 823 (1990)).
Rabbit aorta thoracic is isolated, contracted by angiotensin II. The inhibition of contraction by the compound (1) is expressed as pA2 from dose-response curve (Schild, Brit. J. Pharmacol. 14, 48 (1959)).
The compound `Cc1nc2ccccc(=O)c2n1Cc1ccc(-c2ccccc2-c2nn[nH]n2)cc1` [Compound 1, 5-[2-(4-(2-Methyl-8-oxo-1(8H)-cycloheptimidazolyl)methylbiphenylyl)]tetrazole] displayed a pA2 of 7.95.

Still in this assay, the particulars now being: isolated rabbit thoracic aorta contracted by angiotensin II; from dose-response curve (Schild); read-out: pA2 (converted).
Regarding `CCCCc1nc2c(n1Cc1ccc(-c3ccccc3-c3nn[nH]n3)cc1)C(=O)CCCC2` [18 - K salt], the Kb was 0.316 nM.
As to `CCc1nc2ccccc(=O)c2n1Cc1ccc(-c2ccccc2-c2nn[nH]n2)cc1` [Compound 2, 5-[2-(4-(2-Ethyl-8-oxo-1(8H)-cycloheptimidazolyl)methylbiphenylyl)]tetrazole], the Kb was 2 nM.
Take `CCCc1nc2ccccc(=O)c2n1Cc1ccc(-c2ccccc2-c2nn[nH]n2)cc1` [Compound 3, 5-[2-(4-(2-Propyl-8-oxo-1(8H)-cycloheptimidazolyl)methylbiphenylyl)]tetrazole]: the Kb is 0.331 nM.
On the same count and under the same terms, the value for `CCCCc1nc2ccccc(=O)c2n1Cc1ccc(-c2ccccc2-c2nn[nH]n2)cc1` [Compound 4, 5-[2-(4-(2-Butyl-8-oxo-1(8H )-cycloheptimidazolyl)methylbiphenylyl)]tetrazole] was 0.501 nM.
Still for that read-out and setting: the value for `CC(C)c1nc2ccccc(=O)c2n1Cc1ccc(-c2ccccc2-c2nn[nH]n2)cc1` [Compound 9, 5-[2-(4-(2-Isopropyl-8-oxo-1(8H)-cycloheptimidazolyl)methylbiphenylyl)]tetrazole] was 7.59 nM; that for `CCCCc1nc2c(n1Cc1ccc(-c3ccccc3-c3nn[nH]n3)cc1)CCCCC2` [Compound 11, 5-[2-(4-(2-Butyl-1,4,5,6,7,8-hexahydro-1-cycloheptimidazolyl)methylbiphenylyl)]tetrazole] was 20 nM.
On to `Cc1nc2c(n1Cc1ccc(-c3ccccc3-c3nn[nH]n3)cc1)C(=O)CCCC2` [Compound 15, 5-[2-(4-(2-Methyl-8-oxo-5,6,7,8-tetrahydro-1-cycloheptimidazolyl)methylbiphenylyl)]tetrazole], for which the Kb is 5.01 nM.
For `CCc1nc2c(n1Cc1ccc(-c3ccccc3-c3nn[nH]n3)cc1)C(=O)CCCC2` [Compound 16, 5-[2-(4-(2-Ethyl-8-oxo-5,6,7,8-tetrahydro-1-cycloheptimidazolyl)methylbiphenylyl)]tetrazole], the Kb was 1 nM.
The same measure, in the same setting: with `CCCc1nc2c(n1Cc1ccc(-c3ccccc3-c3nnn[nH]3)cc1)C(=O)CCCC2` [Compound 17, 5-[2-(4-(2-Propyl-8-oxo-5,6,7,8-tetrahydro-1-cycloheptimidazolyl)methylbiphenylyl)]tetrazole] the figure was 0.126 nM; with `CCCCc1nc2c(n1Cc1ccc(-c3ccccc3-c3nn[nH]n3)cc1)C(=O)CCCC2` [Compound 18, 5-[2-(4-(2-Butyl-8-oxo-5,6,7,8-tetrahydro-1-cycloheptimidazolyl)methylbiphenylyl)]tetrazole], 0.501 nM; with `CCCCCc1nc2c(n1Cc1ccc(-c3ccccc3-c3nn[nH]n3)cc1)C(=O)CCCC2` [Compound 19, 5-[2-(4-(2-Pentyl-8-oxo-5,6,7,8-tetrahydro-1-cycloheptimidazolyl)methylbiphenylyl)]tetrazole], 0.398 nM.
On the same count and under the same terms, the value for `CCCCc1nc2c(n1Cc1ccc(-c3ccccc3-c3nn[nH]n3)cc1)CCCCC2=O` [Compound 20, 5-[2-(4-(2-Butyl-4-oxo-5,6,7,8-tetrahydro-1-cycloheptimidazolyl)methylbiphenylyl)]tetrazole] was 63.1 nM.
On to `CC(C)c1nc2c(n1Cc1ccc(-c3ccccc3-c3nn[nH]n3)cc1)C(=O)CCCC2` [Compound 24], for which the Kb was 1.78 nM.
The same measure, in the same setting: with `CC(C)Cc1nc2c(n1Cc1ccc(-c3ccccc3-c3nn[nH]n3)cc1)C(=O)CCCC2` [Compound 25] the figure was 0.851 nM; with `CCCCc1nc2c(n1Cc1ccc(-c3ccccc3-c3nn[nH]n3)cc1)C(O)CCCC2` (centres unmarked) [Compound 26, 5-[2-(4-(2-Butyl-8-hydroxy-1,4,5,6,7,8-hexahydro-1-cycloheptimidazolyl)methylbiphenylyl)]tetrazole], 9.77 nM.
As for `CCCCc1nc2c(n1Cc1ccc(-c3ccccc3-c3nn[nH]n3)cc1)CCCCC2O` (centres unmarked) [Compound 27, 5-[2-(4-(2-Butyl-4-hydroxy-1,4,5,6,7,8-hexahydro-1-cycloheptimidazolyl)methylbiphenylyl)]tetrazole], the Kb is 63.1 nM.

What is called pA2 is the negative logarithm of the molar antagonist concentration that doubles the agonist concentration needed for the same response.
